Reference: US9012489B2, “Phenyl-3-aza-bicyclo[3.1.0]hex-3-yl-methanones and the use thereof as medicament” (Boehringer Ingelheim International GmbH, priority 2011, dated 2015)

What follows are molecules tested against T1, GlyT1 transporter (Homo sapiens, UniProt P48067) (assay: GlyT1 assay: 3H-glycine uptake into SK-N-MC cells (Cytostar-T format)). Settings: glycine uptake in human SK-N-MC cells endogenously expressing GlyT1; 500 nM glycine, 1% DMSO, signal recorded over 60 min.
T1 construct: endogenously expressing the GlyT1 transporter; host or cells: SK-N-MC human neuroblastoma cells
T1 sequence (P48067 1-706): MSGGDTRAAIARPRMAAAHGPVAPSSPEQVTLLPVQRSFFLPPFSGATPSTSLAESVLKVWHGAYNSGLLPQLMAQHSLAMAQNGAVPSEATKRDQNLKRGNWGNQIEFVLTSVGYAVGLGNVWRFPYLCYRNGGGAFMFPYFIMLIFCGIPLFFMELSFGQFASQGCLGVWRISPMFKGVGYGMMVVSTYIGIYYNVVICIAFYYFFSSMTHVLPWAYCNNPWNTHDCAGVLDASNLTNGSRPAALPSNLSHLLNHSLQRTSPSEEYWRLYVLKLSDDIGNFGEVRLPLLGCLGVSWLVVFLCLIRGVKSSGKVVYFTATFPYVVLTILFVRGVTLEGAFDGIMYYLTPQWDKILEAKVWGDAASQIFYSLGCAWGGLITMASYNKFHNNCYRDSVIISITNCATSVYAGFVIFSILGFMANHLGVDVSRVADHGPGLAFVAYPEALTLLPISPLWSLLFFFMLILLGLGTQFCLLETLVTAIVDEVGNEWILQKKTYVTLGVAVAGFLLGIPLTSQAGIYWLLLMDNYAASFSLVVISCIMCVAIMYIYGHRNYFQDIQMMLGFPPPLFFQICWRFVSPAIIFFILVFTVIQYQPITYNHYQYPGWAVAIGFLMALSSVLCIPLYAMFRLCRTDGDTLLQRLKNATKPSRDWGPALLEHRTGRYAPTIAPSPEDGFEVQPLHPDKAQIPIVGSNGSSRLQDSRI
Format: cell-based
Source text: Cells expressing either endogenously the GlyT1 transporter like JAR cells (human placental choriocarcinoma cells; e.g. WO 2008/002583) or SK-N-MC cells (human neuroblastoma cells; Depoortere et al., 2005. Neuropsychopharmacology 30:1963-1985) or primary neurons or cells which have been transfected with a plasmid encoding the cDNA of a functional GlyT1 transporter and stably or transiently express GlyT1 (e.g. WO 2006/08200) can be used to monitor glycine uptake in cells. Different protocols for determination of the glycine uptake into the cells described above can be applied in order to identify and rank compounds which interfere with glycine uptake in the selected cell.
Compounds outlined in the examples below were characterized using human SK-N-MC cells (ATCC number HTB-10) endogenously expressing the GlyT1 transporter which is responsible for the uptake of glycine into these cells and the uptake of glycine into these cells is monitored using the Cytostar-T assay format (GE Healthcare, RPNQ0162) which is based on the radioactive glycine taken up by the cells and brought into proximity with the scintillant contained within the base of the plate. The radioactive decay is converted to a light signal based on the integration of the scintillation matrix into the assay plate. The uptake is recorded as kinetic and the slope of the measured counts over time is used to calculate IC50.
In detail, SK-N-MC cells are seeded into 96-well Cytostar-T assay plates at a density of 200,000 cells/well and grown for 16-18 hours to confluence in growth medium as recommended by ATCC. Before starting the assay, cells are washed once with HBSS (Hank's buffered salt solution; Sigma, H8264) cont. 5 mM alanine (referred in here as HBSS/Ala) and afterwards the following reagents are added: • 1. 80 μl/well HBSS/Ala • 2. 20 μl/well of HBSS/Ala containing 6× the concentration of compound in 6% DMSO • 3. approx. 5-10 min incubation • 4. 20 μl/well 3 μM glycine (^3H-glycine (Perkin Elmer, NET004001MC, specific activity: 52 Ci/mmol; diluted 1:1 with unlabelled glycine) in HBSS/Ala.
In the final assay, glycine concentration is 500 nM (250 nM derived from the ^3H-glycine Perkin Elmer, 250 nM unlabelled glycine), DMSO concentration is 1%.
The assay plate is immediately after addition of the ^3H-glycine placed into a Micro-Beta Counter (Perkin Elmer) and the signal is recorded over 60 min.
To calculate uptake, the slope in the linear range of the kinetics is determined using GraphPadPrism and for the different slopes at the selected concentrations IC50 are calculated by curve fitting using the software GraphPadPrism.
Maximal glycine uptake in every experiment is determined by incubation of SK-N-MC cells with substrate but without inhibitor. Unspecific uptake of glycine by the cells is determined by incubating the cells with substrate and a reference GlyT1 inhibitor e.g. 10 μM RG-1678 (Pinard et al., 2010, J. Med. Chem. 53(12):4603-14).
Compounds are diluted from 10 mM stocks and in general, for IC50 determination 8 compound concentrations are used.
Work on `C[C@H](Oc1ccc(S(C)(=O)=O)cc1C(=O)N1CC2CC2(c2nnc(C(F)(F)F)o2)C1)C(F)(F)F` (mixture of isomers) [Example 125, [5-Methanesulfonyl-2-(2,2,2-trifluoro-1-methyl-ethoxy)-phenyl]-[1-(5-trifluoromethyl-[1,3,4]oxadiazol-2-yl)-3-aza-bicyclo[3.1.0]hex-3-yl]-methanone] yielded an IC50 of 31 nM.
`C[C@H](Oc1ccc(S(C)(=O)=O)cc1C(=O)N1CC2CC2(c2nccc(C(F)(F)F)n2)C1)C(F)(F)F` (single isomer, unassigned) [Example 16, [5-Methanesulfonyl-2-(2,2,2-trifluoro-1-methyl-ethoxy)-phenyl]-[1-(4-trifluoromethyl-pyrimidin-2-yl)-3-aza-bicyclo[3.1.0]hex-3-yl]-methanone] gave an IC50 of 10 nM.
Work on `CS(=O)(=O)c1ccc(O[C@@H]2CCOC2)c(C(=O)N2CC3CC3(c3noc(C(F)(F)F)n3)C2)c1` (single isomer, unassigned) [Example 140, [5-Methanesulfonyl-2-(tetrahydro-furan-3-yloxy)-phenyl]-[1-(5-trifluoromethyl-[1,2,4]oxadiazol-3-yl)-3-aza-bicyclo[3.1.0]hex-3-yl]-methanone] yielded an IC50 of 3000 nM.
With `C[C@@H](Oc1ccc(S(C)(=O)=O)cc1C(=O)N1CC2CC2(c2nnc(C3CC3)o2)C1)C(F)(F)F` (mixture of isomers) [Example 146, [1-(5-Cyclopropyl-[1,3,4]oxadiazol-2-yl)-3-aza-bicyclo[3.1.0]hex-3-yl]-[5-methanesulfonyl-2-(2,2,2-trifluoro-1-methyl-ethoxy)-phenyl]-methanone] the IC50 was 9 nM.
`C[C@@H](Oc1ccc(S(C)(=O)=O)cc1C(=O)N1CC2CC2(c2nc(C(F)(F)F)no2)C1)C(F)(F)F` (single isomer, unassigned) [Example 86, [5-Methanesulfonyl-2-(2,2,2-trifluoro-1-methyl-ethoxy)-phenyl]-[1-(3-trifluoromethyl-[1,2,4]oxadiazol-5-yl)-3-aza-bicyclo[3.1.0]hex-3-yl]-methanone] showed an IC50 of 20 nM.
`C[C@@H](Oc1ccc(S(C)(=O)=O)cc1C(=O)N1CC2CC2(c2noc(C3CC3(F)F)n2)C1)C(F)(F)F` (mixture of isomers) [Example 64, {1-[5-(2,2-Difluoro-cyclopropyl)-[1,2,4]oxadiazol-3-yl]-3-aza-bicyclo[3.1.0]hex-3-yl}-[5-methanesulfonyl-2-(2,2,2-trifluoro-1-methyl-ethoxy)-phenyl]-methanone] showed an IC50 of 4 nM.
`C[C@@H](Oc1ccc(S(C)(=O)=O)cc1C(=O)N1CC2CC2(c2nccc(C(F)(F)F)n2)C1)C(F)(F)F` (mixture of isomers) [Example 72, [5-Methanesulfonyl-2-(2,2,2-trifluoro-1-methyl-ethoxy)-phenyl]-[1-(4-trifluoromethyl-pyrimidin-2-yl)-3-aza-bicyclo[3.1.0]hex-3-yl]-methanone] was tested, and the IC50 was 17 nM.
`COC1(c2nc(C34CC3CN(C(=O)c3cc(S(C)(=O)=O)ccc3O[C@H](C)C(F)(F)F)C4)no2)CC1` (single isomer, unassigned) [Example 121, [5-Methanesulfonyl-2-(2,2,2-trifluoro-1-methyl-ethoxy)-phenyl]-{1-[5-(1-methoxy-cyclopropyl)-[1,2,4]oxadiazol-3-yl]-3-aza-bicyclo[3.1.0]hex-3-yl}-methanone] gave an IC50 of 349 nM.
For `Cc1nc(C23CC2CN(C(=O)c2cc(S(C)(=O)=O)ccc2O[C@H](C)C(F)(F)F)C3)no1` (single isomer, unassigned) [Example 43, [5-Methanesulfonyl-2-(2,2,2-trifluoro-1-methyl-ethoxy)-phenyl]-[1-(5-methyl-[1,2,4]oxadiazol-3-yl)-3-aza-bicyclo[3.1.0]hex-3-yl]-methanone], the IC50 was 251 nM.
Molecule `CCS(=O)(=O)c1ccc(O[C@@H](C)C(F)(F)F)c(C(=O)N2CC3CC3(c3nccc(C(F)(F)F)n3)C2)c1` (mixture of isomers) [Example 73, [5-Ethanesulfonyl-2-(2,2,2-trifluoro-1-methyl-ethoxy)-phenyl]-[1-(4-trifluoromethyl-pyrimidin-2-yl)-3-aza-bicyclo[3.1.0]hex-3-yl]-methanone] has an IC50 of 9 nM.
